Where no end group is shown, it is not given here.
Experiments:
[1] = tested on: anti-Porphyomonas gingivalis fimbria antibodies contained in sera of patients with periodontal disease; assay: Assay of the specific antibody in serum using plates coated with peptide-modified BSA (ELISA); type: binding, human; settings: average absorbance (405 nm) of 3 specimens, serum diluted 100 times
Procedure: One mg of each peptide synthesized in Example 2 was dissolved in 1 ml of 0.1 M phosphate buffered saline (PBS, pH 6.0), 5 mg of sulfated SMCC (made by Pierce Co.) was added, and the mixture was incubated at 30° C. for 30 minutes to conduct maleimidization, and then subjected to Sephadex G-10 column chromatography, and the first eluate fraction was collected. 7 mg of bovine serum albumin (BSA: made by Wako Pure Chemical Industries, Ltd.) was dissolved in 1 ml of 0.1 M phosphate buffer (pH 6.0), 10 mM EDTA, the solution was mixed with the above maleimidized peptide, and the mixture was subjected to reaction at 30° C. for 1 hour. The resultant peptide-modified BSA was subjected to Sephadex G-50 column chromatography, and the first eluate fraction was collected as a plate-preparing antigen solution.
Then, six kind of peptides were synthesized after the process of Example 2, and a plate-preparing antigen solution was similarly prepared as a control.
Each of the resultant antigen solutions was diluted with 0.1 M carbonate buffer (pH 9.6), 150 mM NaCl to give 100 ml of a solution. 10 μl/well of the solution was put in a polystyrene-made microtiter plate (Immunoplate II; maxisorp type; made by Nunc Co.) and left alone at 4° C. overnight, and washing was conducted three times each with 200 μl/well of PBS, using a microtiter automatic washer (hereafter abbreviated as washer; made by Bio-Rad Laboratories). 250 μl/well of PBS containing 0.1% gelatin (made by Nitta Gelatin Co., Ltd.) was added and the mixture was allowed to stand at 4° C. overnight to block the plate. The blocking solution was removed by absorption, and the plate was dried by a vacuum dryer, put in an aluminum bag, and after sealing the bag, kept at 4° C. for the following assay.
Sera of patients of periodontal disease (n=3) and normal subjects (n=3) were used as samples, and each serum was diluted 100 times with PBS containing 10% bovine serum. 100 μl portions of these dilutions were added to the plates coated with various antigens, respectively, and incubation was conducted at 37° C. for 1 hour. Each plate was washed three times with 200 μl of PBST using the washer, 100 μl of a commercially available […] (diluted 10^3 times)/0.1% Casein/PBST was added as a secondary antibody, and incubation was conducted again at 37° C. for 1 hour. The plate was washed in the same manner as above, 100 μl of an o-phenylenediamine solution was added, incubation was conducted at 37° C. for 30 minutes, 100 μl of 0.1 N sulfuric acid was added to stop the reaction, and then, absorbance (405 nm) was measured by a microplate reader (made by Bio-Rad Laboratories) using the reaction well of no addition of the specimen as a control. The measures values are average absorbances of 3 specimens each of the patient group of periodontal disease and the normal subject group.

[2] = tested on: Porphyomonas gingivalis; type: in vivo, guinea pig; settings: with FCA; for Degree of redness Longest length × shortest length: 500 μg/animal, inoculation on the 28th day, 24 hours later; for Inhibition rate: relative to the FIA inoculation group
Procedure: Each peptide synthesized in Example 2 was administered together with FIA (Freund's incomplete adjuvant) or FCA (Freund's complete adjuvant), as a water-in-oil type emulsifier, into the sole of the right hind leg of a guinea pig in an amount of 500 μg/animal/time. Thereafter, on the 28th day, 200 μl of a suspension of 10^11 cells/ml of the bacterium was intracutaneously inoculated into the right flank of the same guinea pig after the hair at the region was shaved. 24 hours later, the longest length and shortest length of the resultant red coloring were measured, and the product of them was calculated. From the product was calculated the inhibition rate.

[3] = Immunization of mice with the peptides: body weight; type: in vivo; settings: mice immunized with FCA emulsion, 3 animals per group
Procedure: (§1) Each peptide synthesized in Example 2 was dissolved in PBS so as to make the concentration 200 μg/ml, the solution was mixed with the same volume of FCA, and the mixture after emulsification was subcutaneously injected into mice at the back (3 animals per group). 4 weeks later, the antibody titer in the serum or saliva against the peptide was assayed by an ELISA method.

[4] = tested on: fimbrial protein of Porphyomonas gingivalis; assay: Immunization of mice with the peptides: antibody titer in serum or saliva by ELISA; type: in vivo; settings: A405 value by the ELISA method, with FCA, 4 weeks later
Procedure: as §1
The fimbrial protein of Porphyomonas gingivalis was adsorbed on each well of a 96-well microtiter plate for ELISA, and a dilution of the serum with PBS (1/10^5), a dilution of the saliva with PBS (1/500), or a solution obtained by adding each peptide or the fimbrial protein of Porphyomonas gingivalis is to the dilution of the serum or saliva to cause absorption was put in the well. Reaction was conducted at 37° C. for 1 hour, and then assay was conducted by a usual ELISA method.

Substance | Antibody titer, Normal subject group [1] | Antibody titer, Patient group with peridontal disease [1] | Degree of redness Longest length × shortest length [2] [mm^2] | Inhibition rate [2] [%] | Body weight (Average g) [3] [g] | Antibody titer Saliva (1/500) After absorption [4] | Antibody titer Saliva (1/500) Before absorption [4] | Antibody titer Serum (1/10^5) After absorption [4] | Antibody titer Serum (1/10^5) Before absorption [4]
DANYLTGSLT [Comparative peptide, reference compound] | 0.145 | 0.196 | – | – | – | – | – | – | –
LCVYGKLQKN [Comparative peptide, reference compound] | 0.213 | 0.182 | – | – | – | – | – | – | –
NHIENDPLKI [Comparative peptide, reference compound] | 0.201 | 0.205 | – | – | – | – | – | – | –
Peptide 2: synthetic peptide, epitope of the 41 kD fimbrial subunit protein of Porphyomonas gingivalis; sequence in Table 1, not shown (EVKALTTELT) | 0.205 | 0.566 | 1179 | 39.5 | 26 | 0.17 | 0.36 | 0.15 | 0.34
Peptide 3: synthetic peptide, epitope of the 41 kD fimbrial subunit protein of Porphyomonas gingivalis; sequence in Table 1, not shown (AENQEAAGLI) | 0.214 | 0.623 | 1155 | 40.7 | 26 | 0.09 | 0.37 | 0.16 | 0.38
Peptide 4: synthetic peptide, epitope of the 41 kD fimbrial subunit protein of Porphyomonas gingivalis; sequence in Table 1, not shown (AAGLIMTAEP) | 0.197 | 0.941 | 851 | 56.3 | 27 | 0.12 | 0.49 | 0.13 | 0.52
Peptide 5: synthetic peptide, epitope of the 41 kD fimbrial subunit protein of Porphyomonas gingivalis; sequence in Table 1, not shown (TGSLTTFNGA) | 0.165 | 0.760 | 1063 | 45.4 | 28 | 0.15 | 0.42 | 0.11 | 0.45
Peptide 6: synthetic peptide, epitope of the 41 kD fimbrial subunit protein of Porphyomonas gingivalis; sequence in Table 1, not shown (TFNGAYTPAN) | 0.141 | 0.675 | 1112 | 42.9 | 26 | 0.11 | 0.39 | 0.12 | 0.41
Peptide 8: synthetic peptide, epitope of the 41 kD fimbrial subunit protein of Porphyomonas gingivalis; sequence in Table 1, not shown (ANGGTIHPTI) | 0.182 | 0.935 | 1022 | 47.5 | 25 | 0.14 | 0.45 | 0.11 | 0.49
Peptide 9: synthetic peptide, epitope of the 41 kD fimbrial subunit protein of Porphyomonas gingivalis; sequence in Table 1, not shown (EGKTYYPVLV) | 0.186 | 0.546 | 1265 | 35.0 | 26 | 0.13 | 0.34 | 0.13 | 0.32
RTLVVMANTG [Comparative peptide, reference compound] | 0.161 | 0.199 | – | – | – | – | – | – | –
VMVYNGEQQE [Comparative peptide, reference compound] | 0.172 | 0.165 | – | – | – | – | – | – | –
WLSRNYVAPA [Comparative peptide, reference compound] | 0.204 | 0.210 | – | – | – | – | – | – | –

Reference: patent US6160087A, “Peptides having an amino acid sequence from the fimbrial protein of porphyromonas gingivalis and their uses” (priority 1993, dated 2000)
